According to patent US6528251B2, “Method of managing the chemotherapy of patients who are HIV positive based on the phenotypic drug sensitivity of human HIV strains” (Virco N.V., priority 1996, dated 2003):
Read-outs that look alike come from different tables or passages of the source.

Experiments:
Format in all cases: cell-based, HIV-1
[1] = tested on: Recombinant wild type HIV strain recIIIB; experiment: Antiviral MT4/MTT assay with reference virus recIIIB; conditions: read-out: Anti-HIV-1 activity IC50 (μM) recIIIB ref (2)
Protocol: (§1) After titration of the new viruses, the stocks were used for antiviral experiments in the presence of serial dilutions of different HIV inhibitors. Titres of the harvested supematants were determined by limited serial dilution titration of virus in MT4 cells.
(§2) Viruses with a useful titre were used in antiviral experiments. For this purpose, 96-well microtitre plates were filled with 100μl of complete culture medium. Subsequently, stock solutions of compounds were added in 25 μl volumes to series of duplicate wells. HIV- and mock-infected cell samples were included for each drug (or drug combination). Exponentially growing MT4 cells were then transferred to the microtitre plates at a density of 150,000 cells/ml. The cell cultures were then incubated at 37° C. in a humidified atmosphere of 5% CO2. Five days after infection, the viability of the mock- and HIV-infected cells was examined spectrophotometrically by the M1T method (Pauwels, R. et al. J. Virol. Meth. (1988), 20: 309-321) as described in Section 6 below.
(§3) To each well of the microtiter plates, 20 μl of a solution of MTT (7.5 mg/ml in PBS) was added. The plates were further incubated at 37° C. for 1 h. Then, 150 μl of medium was removed without disturbing the MT4 cell clusters containing the formazan crystals. Solubilization of the formazan crystals was achieved by adding 100 μl 5% Triton X-100 in acidified isopropanol (5 ml concentrated HCl per liter solvent). Complete dissolution of the formazan crystals was obtained after the plates had been placed on a plate shaker for 10 min. Finally the absorbances were read at two wavelengths (540 and 690 nm). From these optical density (OD) data, 50% inhibitory (IC50) and 50% cytotoxic (CC50) concentrations were derived.

[2] = tested on: recombinant virus from patient viral RNA (Example 10, drug-naive patient); experiment: Recombinant virus assay (MT4/MTT), drug-naive patient of Example 10; conditions: for IC50: Human immunodeficiency virus 1, Table 6, Example 10 patient virus; for ratio (1)/(2): Table 6, patient mean IC50 / recIIIB IC50, Example 10
Protocol: (§4) RNA was isolated from 100 μl of plasma according to the method described by Boom, R. et al. (1990, supra), and was reverse transcribed with the GeneAmp reverse transcriptase kit (Perkin Elmer) as described by the manufacturer and using an HIV-1 specific downstream primer (OUT3: 5′-CATTGCTCTCCAATTACTGTGATATTTCTCATC-3′; SEQ ID NO: 1). PCR on reverse transcribed RNA was performed with inner and outer primers as described by Kellam, P. and Larder, B. A. (1994, supra). After chloroform extraction and centrifugation on Centricon 100 columns or centrifugation on anion-exchange spin columns (Quiagen), the isolated PCR product was ready for use in the transfection reactions.
(§5) MT4 cells were subcultured at a density of 250,000 cells/ml before transfection (exponential growth phase). Cells were pelleted and resuspended in phosphate buffered saline (PBS) at a concentration of […]. A 0.8 ml portion (2.5 10E6 cells/ml) was used for each transfection. Transfection was performed with the Bio-Rad Gene pulser making use of 0.4 cm electrode cuvettes. Cells were electroporated in the presence of […] of linearised pHIVΔRT plasmid and approximately 5 μg of RT PCR product at 250SF and 300 V, followed by a 30-min incubation at room temperature. Subsequently, 10 ml of fresh culture medium was added to the cell suspension and incubation was performed at 37° C. in a humidified atmosphere of 5% CO2.
(§6) During 7 to 10 days following the transfection, cells were monitored for the appearance of cytopathogenic effect (CPE). In the absence thereof, cells were subcultured in different flasks. Subsequently, culture supernatants of transfected cells were used to create a stock of recombinant virus and stored in 1.5 ml aliquots at −70° C.
as §1, §2, §3
(§7) A drug-naive HIV-infected patient donated plasma whose susceptibility to a number of RT inhibitors and protease inhibitors was determined according to the protocol set out in Example 1. Recombinant wild type HIV strain recIIIB was used as a reference HIV virus.

[3] = tested on: recombinant virus from patient viral RNA (Example 11); experiment: Recombinant virus assay (MT4/MTT), patient of Example 11 (therapy history RT and protease inhibitors); conditions: for susceptibility of the patient's HIV strain (in words): Example 11 patient, conclusion from Table 7; for IC50: Human immunodeficiency virus 1, Table 7, Example 11 patient virus; for ratio (1)/(2): Table 7, patient mean IC50 / recIIIB IC50, Example 11
Protocol: as §4, §5, §6, §1, §2, §3
as §7, with “An HIV infected” for “A drug-naive HIV-infected”, “patient with a therapy history including RT and protease inhibitors” for “patient”, “recIIIb” for “recIIIB”

[4] = tested on: recombinant virus from patient viral RNA (Example 12); experiment: Recombinant virus assay (MT4/MTT), patient of Example 12 (therapy history RT and protease inhibitors); conditions: for susceptibility of the patient's HIV strain (in words): Example 12 patient, conclusion from Table 8; for IC50: Human immunodeficiency virus 1, Table 8, Example 12 patient virus; for ratio (1)/(2): Table 8, patient mean IC50 / recIIIB IC50, Example 12
Protocol: as §4, §5, §6, §1, §2, §3
An HIV infected patient with a therapy history including RT and protease inhibitors donated plasma whose susceptibility to a number of RT inhibitors and protease inhibitors was determined according to the protocol set out in Example 1.

[5] = tested on: recombinant virus from patient viral RNA (Example 5, 3TC resistant HIV strains); experiment: Recombinant virus assay (MT4/MTT), patient of Example 5 (AZT, then AZT+3TC therapy); conditions: for IC50: Human immunodeficiency virus 1, Table 1, Example 5 patient virus; for ratio (1)/(2): Table 1, patient mean IC50 / recIIIB IC50, Example 5
Protocol: as §4, §5, §6, §1, §2, §3
An HIV infected patient who received AZT from December 1989 until an undocumented later date, and switched to a combined chemotherapy of AZT+3TC (1:1) from February 1994 until October 1995 donated plasma whose susceptibility to a number of RT inhibitors was determined according to the above described protocol of Example 1. Recombinant wild type HIV strain recIIIB was used in said protocol as a reference HIV virus.

[6] = tested on: recombinant virus from patient viral RNA (Example 7, drug-naive patient); experiment: Recombinant virus assay (MT4/MTT), drug-naive patient of Example 7; conditions: for IC50: Human immunodeficiency virus 1, Table 3, Example 7 patient virus; for ratio (1)/(2): Table 3, patient mean IC50 / recIIIB IC50, Example 7
Protocol: as §4, §5, §6, §1, §2, §3
A drug-naive HIV-infected patient donated plasma whose susceptibility to a number of RT inhibitors was determined according to the protocol set out in Example 1. Recombinant wild type HIV strain recIIIB was used as a reference HIV virus.

[7] = tested on: recombinant virus from patient viral RNA (Example 8); experiment: Recombinant virus assay (MT4/MTT), patient of Example 8 (therapy history AZT, 3TC and loviride); conditions: for IC50: Human immunodeficiency virus 1, Table 4, Example 8 patient virus; for ratio (1)/(2): Table 4, patient mean IC50 / recIIIB IC50, Example 8
Protocol: as §4, §5, §6, §1, §2, §3
(§8) An HIV-infected patient with a therapy history including AZT, 3TC and loviride donated plasma whose susceptibility to a number of RT inhibitors was determined according to the protocol set out in Example 1. Recombinant wild type HIV strain recIIIB was used as a reference HIV virus.

[8] = tested on: recombinant virus from patient viral RNA (Example 9); experiment: Recombinant virus assay (MT4/MTT), patient of Example 9 (multiple nucleoside analogue RT-inhibitors); conditions: for IC50: Human immunodeficiency virus 1, Table 5, Example 9 patient virus; for ratio (1)/(2): Table 5, patient mean IC50 / recIIIB IC50, Example 9
Protocol: as §4, §5, §6, §1, §2, §3
as §8, with “multiple nucleoside analogue RT-inhibitors” for “AZT, 3TC and loviride”

[9] = Human immunodeficiency virus 1, Table 6, reference run of Example 10
[10] = Human immunodeficiency virus 1, Table 7, reference run of Example 11
[11] = Human immunodeficiency virus 1, Table 8, reference run of Example 12
[12] = MT4 cells, read-out: Anti-HIV-1 activity IC50 (μM) Exp. 1
[13] = MT4 cells, read-out: Anti-HIV-1 activity IC50 (μM) Exp. 2
[14] = mean, read-out: Anti-HIV-1 activity IC50 (μM) Mean (1)
[15] = Human immunodeficiency virus 1, Table 1, reference run of Example 5
[16] = Human immunodeficiency virus 1, Table 3, reference run of Example 7
[17] = Human immunodeficiency virus 1, Table 4, reference run of Example 8
[18] = Human immunodeficiency virus 1, Table 5, reference run of Example 9
[19] = mean of Exp. 1 and 2, read-out: Anti-HIV-1 activity IC50 (μM) Mean (1)

Compound	IC50 [1, 9]	IC50 [1, 10]	IC50 [1, 11]	IC50 [2, 12]	IC50 [2, 13]	IC50 [2, 14]	ratio (1)/(2) [2]	susceptibility of the patient's HIV strain (in words) [3]	IC50 [3, 12]	IC50 [3, 13]	IC50 [3, 14]	ratio (1)/(2) [3]	susceptibility of the patient's HIV strain (in words) [4]	IC50 [4, 12]	IC50 [4, 14]	ratio (1)/(2) [4]	IC50 [1, 15]	IC50 [1, 16]	IC50 [1, 17]	IC50 [1, 18]	also measured
CC(C)(C)NC(=O)[C@@H]1CN(Cc2cccnc2)CCN1C[C@@H](O)C[C@@H](Cc1ccccc1)C(=O)N[C@H]1c2ccccc2C[C@H]1O [indinavir]	0.016 µM	0.027 µM	0.016 µM	0.013 µM	0.013 µM	0.013 µM	0.8	decreased susceptibilty	0.229 µM	0.416 µM	0.323 µM	12	decreased susceptibility	0.124 µM	0.124 µM	8					
CC(=O)c1ccc(C)cc1NC(C(N)=O)c1c(Cl)cccc1Cl (stereo not shown) [loviride]																	0.05 µM	0.024 µM	0.037 µM	0.065 µM	IC50 [5, 12]: 0.1 µM; IC50 [5, 13]: 0.12 µM; IC50 [5, 19]: 0.11 µM; ratio (1)/(2) [5]: 2; IC50 [6, 12]: 0.035 µM; IC50 [6, 13]: 0.025 µM; IC50 [6, 14]: 0.03 µM; ratio (1)/(2) [6]: 1; IC50 [7, 12]: > 100 µM; IC50 [7, 13]: > 100 µM; IC50 [7, 14]: > 100 µM; ratio (1)/(2) [7]: >2717; IC50 [8, 12]: 0.064 µM; IC50 [8, 13]: 0.058 µM; IC50 [8, 14]: 0.061 µM; ratio (1)/(2) [8]: 0.9
CC(C)c1nc(CN(C)C(=O)N[C@H](C(=O)N[C@@H](Cc2ccccc2)C[C@H](O)[C@H](Cc2ccccc2)NC(=O)OCc2cncs2)C(C)C)cs1 [ritonavir]	0.033 µM	0.062 µM	0.033 µM	0.022 µM	0.017 µM	0.019 µM	0.6	decreased susceptibilty	1.2 µM	1.74 µM	1.47 µM	24	decreased susceptibility	1.61 µM	1.57 µM	47					IC50 [4, 13]: 1.53 µM
CC(C)=CCN1Cc2c(Cl)ccc3[nH]c(=S)n(c23)C[C@@H]1C [tivirapine]																	0.01 µM	0.021 µM	0.021 µM	0.042 µM	IC50 [5, 12]: 0.019 µM; IC50 [5, 13]: 0.018 µM; IC50 [5, 19]: 0.019 µM; ratio (1)/(2) [5]: 1.5; IC50 [6, 12]: 0.042 µM; IC50 [6, 13]: 0.049 µM; IC50 [6, 14]: 0.046 µM; ratio (1)/(2) [6]: 2; IC50 [7, 12]: 1.63 µM; IC50 [7, 13]: 1.6 µM; IC50 [7, 14]: 1.61 µM; ratio (1)/(2) [7]: 78; IC50 [8, 12]: 0.052 µM; IC50 [8, 13]: 0.043 µM; IC50 [8, 14]: 0.048 µM; ratio (1)/(2) [8]: 1
